Experimental data reported in US10201532B2, “Compounds and their use” (ALLECRA THERAPEUTICS GMBH, priority 2010, dated 2019).
“And” between values parts separate entries of the source, which are not always exact repeats. Equal values may be shown once. Read-outs that look alike come from different tables or passages of the source.

Experiments:
[1] = tested on: KPC2 K. pneumoniae ATCC BAA 1705; assay: Mice systemic infection model; type: in vivo; conditions: sub-cutaneous, printed as piperacillin:BLI dose
[2] = tested on: KPC2 K. pneumoniae ATCC BAA 1705; assay: Neutropenic mice thigh infection model (human adapted model); type: in vivo; conditions: for Bacterial load (range), Doripenem + BLI: Doripenem 70 mg/kg fractionated + BLI 35 mg/kg bolus, end point 8 h
Method: Female Swiss Albino mice weighing 24-30 g were used for all studies. Study protocols were reviewed and approved by Institutional Animal Ethical Committee, Orchid Research Laboratories Limited. Mice were rendered neutropenic by intra-peritoneal cyclophosphamide injections. Log phase culture in brain heart infusion broth was injected in to mice thighs. Imipenem or Doripenen alone or in combination were administered sub-cutaneously in decreasing fractionated doses every 15 minutes over the period of 5.5 h (Flückiger, U. et al. “Integration of pharmacokinetics and pharmacodynamics of Imipenem in a human-adapted mouse model’. Antimicrobial Agents and Chemother, 1991, 35(9): 1905-1910). The Compound-1 or tazobactam was administered sub-cutaneously as bolus dose at the start of dosing. Efficacy end point was 6 h in Imipenem studies and 8 h in Doripenen studies.
Three experiments were carried out where Doripenen alone or in combination with compound-1 or tazobactam (two experiments) were evaluated. Doripenem 70 mg/kg was administered in fractionated doses over the period of 5.5 h (Fluckiger, U. et al. “Integration of pharmacokinetics and pharmacodynamics of Imipenem in a human-adapted mouse model’. Antimicrobial Agents and Chemother., 1991, 35(9): 1905-1910). Compound-1 or tazobactam was administered as bolus dose at initiation of therapy. Efficacy end point was 8 h after initiation of therapy.

[3] = tested on: E. coli BAA-198 (TEM-26); assay: MIC of Piperacillin with inhibitor, ESBL isolates; type: cell-based, Escherichia coli
[4] = tested on: E. coli BAA-201 (TEM-3); assay: MIC of Piperacillin with inhibitor, ESBL isolates; type: cell-based
[5] = tested on: P. mirabilis BAA-663 (TEM-89); assay: MIC of Piperacillin with inhibitor, ESBL isolates; type: cell-based
[6] = tested on: KPC2 K. pneumoniae ATCC BAA 1705; assay: Mice systemic infection model; type: in vivo; conditions: Klebsiella pneumoniae
Method: Female Swiss Albino mice, weighing 18-22 g were used for all studies. For each dose group, 5 or 6 mice were included. Study protocols were reviewed and approved by Institutional Animal Ethical Committee, Orchid Research Laboratories Limited. Mice were housed in individually ventilated cages provided with food and water ad libitum, throughout the study period. From overnight culture in Brain-Heart Infusion agar medium, challenge inoculum with required bacterial density was prepared in normal saline containing Hog gastric mucin. In studies involved with doripenem, washed bacterial cells was used. Each mouse was infected […] inoculum by intra-peritoneal injection.
Infected mice were dosed sub-cutaneously, with drug preparations at three different time points post-infection.
Imipenem with BLI combinations: Increasing concentrations of Imipenem as single agent or in combination with fixed concentration of BLIs were used to dose infected mice, sub-cutaneously. In this experiment Imipenem was always administered along with cilastatin. Doripenem with BLI combinations: Increasing concentrations of doripenem as single agent or in combination with fixed concentration of BLIs were used to dose infected mice, sub-cutaneously.
Survival of the treated mice were monitored twice a day, up to 7 days post-infection. Efficacy dose 50 (ED50) was calculated by Reed and Muench method (Reed, L. J.; Muench, H. “A simple method of estimating fifty percent endpoints”. The American Journal of Hygiene, 1938, 27: 493-497.).

[7] = tested on: E. cloacae 01 MGH 049 (KPC2, AmpC); assay: Synergistic broth micro-dilution MIC; type: cell-based; conditions: BLI at 4 μg/mL
[8] = tested on: E. coli BAA-200 (SHV-4); assay: MIC of Piperacillin with inhibitor, ESBL isolates; type: cell-based, Escherichia coli
[9] = tested on: E. coli BAA-199 (SHV-3); assay: MIC of Piperacillin with inhibitor, ESBL isolates; type: cell-based, Escherichia coli
[10] = tested on: E. coli ATCC 25922 (β-lac-ve); assay: Disk zone of inhibition, antibiotic + Compound-1 on same disk (Methodology 2); type: cell-based, Escherichia coli
[11] = tested on: KPC/ESBL producing Enterobacteriaceae; assay: Double Disk Synergy Test (Methodology 1); type: cell-based, Klebsiella pneumoniae, Escherichia coli; conditions: Compound-1 60 μg disk at 7 & 10 mm from antibiotic disks; FIG. 1
From the text: (§1) In this experiment, Compound-1 is used as a diagnostic reagent for the detection of β-lactamases belonging to the families KPC & ESBL (e.g., SHV18) producing Enterobacteriaceae. A simple set of absorbent paper disks impregnated with antibiotic on agar medium is used for the detection.
(§2) • 0.5 McFarland of the test organism was inoculated at 1:10 dilution on Muller • Hinton Agar plates • Test organisms: Klebsiella pneumoniae (K.p) ATCC BAA-1705, Klebsiella pneumoniae ATCC 700603, Escherichia coli (E.c) Ecoli233 • Carbapenem (e.g., Imipenem [IPM] 10 μg) and cephalosporin (e.g., Ceftazidime [CAZ] 30 μg) paper disks (7 mm) were placed on the inoculated agar plates • Compound-1 (60 μg) disk was placed at a distance of 7 & 10 mm from the carbapenem and cephalosporin disks. • The presence of expressed carbapenemases or ESBLs was measured as the expansion of Imipenem or Ceftazidime's inhibition zones due to synergy in the presence of Compound-1.

[12] = tested on: K. pneumoniae ATCC BAA-1705 (KPC2); assay: Disk zone of inhibition, antibiotic + Compound-1 on same disk (Methodology 2); type: cell-based, Klebsiella pneumoniae
From the text: as §1, §2
The methodology remains the same as Methodology 1 except the following change • Compound-1 (60 μg) was added on the same disk in combination with a carbapenem (e.g., Imipenem 10 μg) or cephalosporin (e.g., Ceftazidime 30 μg) and placed on the inoculated agar plate. • The presence of the expressed carbapenemases or ESBLs was measured as an increase in Imipenem or Ceftazidime's zone diameter in combination with Compound-1 compared to antibiotic alone. Results

[13] = BAA1705, 168 h, read-out: ED50, single agent
[14] = BAA1705, BLI fixed at 64 mg/kg, mice, sub-cutaneous, with cilastatin, read-out: ED50 of Imipenem + BLI

C[C@]1(Cn2ccnn2)[C@H](C(=O)O)N2C(=O)C[C@H]2S1(=O)=O [Tazobactam]
ED50 of Piperacillin:BLI at 1:1 ratio [1]: >200:>200 mg/kg | ED50 of Piperacillin:BLI at 1:1 ratio ([1]; listed as tazobactam): > 200 mg/kg | Bacterial load (range), Doripenem + BLI [2]: 1.19 × 10^7-1.6 × 10^7 CFU/thigh | MIC of Piperacillin with inhibitor ([3]; inhibitor at 1 μg/mL): 4 µg/mL | MIC of Piperacillin with inhibitor ([3]; inhibitor at 2 μg/mL): 4 µg/mL | MIC of Piperacillin with inhibitor ([3]; inhibitor at 4 μg/mL): 4 µg/mL | MIC of Piperacillin with inhibitor ([4]; inhibitor at 1 μg/mL): 4 µg/mL | MIC of Piperacillin with inhibitor ([4]; inhibitor at 2 μg/mL): 4 µg/mL | MIC of Piperacillin with inhibitor ([4]; inhibitor at 4 μg/mL): 2 µg/mL | MIC of Piperacillin with inhibitor ([5]; inhibitor at 1 μg/mL): 8 µg/mL | MIC of Piperacillin with inhibitor ([5]; inhibitor at 2 μg/mL): 8 µg/mL | MIC of Piperacillin with inhibitor ([5]; inhibitor at 4 μg/mL): 4 µg/mL | ED50 [6, 13]: > 200 mg/kg | ED50 [6, 14]: 4 mg/kg | MIC of Imipenem in combination with BLI [7]: 8 µg/mL | MIC of Piperacillin with inhibitor ([8]; inhibitor at 1 μg/mL): >128 µg/mL | MIC of Piperacillin with inhibitor ([8]; inhibitor at 2 μg/mL): >128 µg/mL | MIC of Piperacillin with inhibitor ([8]; inhibitor at 4 μg/mL): 4 µg/mL | MIC of Piperacillin with inhibitor ([9]; inhibitor at 1 μg/mL): >128 µg/mL | MIC of Piperacillin with inhibitor ([9]; inhibitor at 2 μg/mL): >128 µg/mL | MIC of Piperacillin with inhibitor ([9]; inhibitor at 4 μg/mL): >128 µg/mL

C[n+]1ccn(C[C@@]2(C)[C@H](C(=O)[O-])N3C(=O)C[C@H]3S2(=O)=O)n1 [Compound-1, 1-{[(2S,3S,5R)-2-Carboxy-3-methyl-4,4,7-trioxo-4-thia-1-azabicyclo[3.2.0]hept-3-yl]methyl}-3-methyl-1H-1,2,3-triazol-3-ium]
ED50 of Piperacillin:BLI at 1:1 ratio [1]: 50 mg/kg and 50:50 mg/kg | Bacterial load (range), Doripenem + BLI [2]: 7.9E+05-1.4E+06 CFU/thigh | Bacterial load (range), Doripenem + BLI ([2]; listed as compound-1): 7.9E+05-1.3E+06 CFU/thigh | Bacterial load, Imipenem + BLI ([2]; Imipenem 140 mg/kg fractionated + BLI 140 mg/kg bolus, end point 6 h): 2.1E+05 CFU/thigh | ZOI of CAZ + Compound-1 ([10]; Ceftazidime 30 μg + Compound-1 60 μg on same disk, ATCC 25922): 25 mm | ZOI of IPM + Compound-1 ([10]; Imipenem 10 μg + Compound-1 60 μg on same disk, ATCC 25922): 26.5 mm | Zone of inhibition of compound-1 alone ([10]; β-lactamase negative strain, FIG. 1 (D)): does not show any zone of inhibition | Synergy: increase of Imipenem or Ceftazidime zone adjacent to Compound-1 disk [11]: Synergy was observed | ED50 [6, 13]: > 64 mg/kg | ED50 [6, 14]: 2.2 mg/kg | MIC of Imipenem in combination with BLI [7]: 4 µg/mL | ZOI of CAZ + Compound-1 ([12]; Ceftazidime 30 μg + Compound-1 60 μg on same disk): 18.5 mm | ZOI of IPM + Compound-1 ([12]; Imipenem 10 μg + Compound-1 60 μg on same disk): 20 mm
